Data: patent US20230339851A1, “CXCR6 SULFONAMIDE COMPOUNDS” (CHEMOCENTRYX, INC., priority 2022, published 2023)

Biological target: T1, human CXCR6 (Homo sapiens, UniProt O00574)
T1 construct: expressed in transfected cells
Test: Radioligand Binding Assay (125I-CXCL16 displacement)
Settings: L1.2 cells stably transfected with human CXCR6 cDNA, 0.1 nM 125I-CXCL16, 4° C., three-hour incubation; read-out: Potency (IC50)
Protocol: L1.2 cells stably transfected with human CXCR6 cDNA ([…]) were incubated at 4° C. in HBSS containing 0.1 % BSA and 0.1 nM of ^125I-CXCL16 plus various concentrations of Compound. Following a three-hour incubation period, cells were aspirated onto polyethyleneimine-treated GF/B glass fiber filters (PerkinElmer, Waltham, MA) with a cell harvester (Tomtec, Hamden, CT) and washed twice with washing buffer (25 mM Hepes, 500 mM NaCl, 1 mM CaCI2, 5 mM MgCI2, pH 7.1). Fifty µl of MicroScint-20 (PerkinElmer, Waltham, MA) was added to each well of the filters, and radioactive emissions (cpm) were measured on a Packard TopCount Scintillation counter (PerkinElmer, Waltham, MA). IC50 values were calculated with GraphPad Prism using 3 parameter nonlinear regression. […]

T1 sequence (O00574 whole entry): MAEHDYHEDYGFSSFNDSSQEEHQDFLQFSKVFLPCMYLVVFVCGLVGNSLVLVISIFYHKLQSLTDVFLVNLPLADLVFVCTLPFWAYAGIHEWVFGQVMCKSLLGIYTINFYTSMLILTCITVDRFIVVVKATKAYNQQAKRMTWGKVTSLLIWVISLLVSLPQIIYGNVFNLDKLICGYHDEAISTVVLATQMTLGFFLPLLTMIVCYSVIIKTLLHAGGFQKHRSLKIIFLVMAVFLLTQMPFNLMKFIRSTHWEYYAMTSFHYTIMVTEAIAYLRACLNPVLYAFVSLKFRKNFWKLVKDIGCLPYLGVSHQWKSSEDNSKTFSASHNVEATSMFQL

SMILES: CCOc1cc(NC(=O)[C@@H](N)c2ccccc2)ccc1S(=O)(=O)Nc1ccc(Cl)c(OC(F)(F)F)c1 [Example 1.234]
- IC50: ≤ 200 nM

SMILES: CCOc1cc(NC(=O)[C@@H](O)C(C)C)ccc1S(=O)(=O)Nc1cccc(C(F)(F)F)c1C [Example 1.312]
- IC50: 2000 to 20000 nM

SMILES: COc1cc(NC(=O)c2ccnn2C)ccc1S(=O)(=O)Nc1ccc2c(c1)OC(F)(F)O2 [Example 1.582]
- IC50: 750 to 2000 nM

SMILES: CCOc1cc(NC(=O)C(O)c2ccc(O)cc2)ccc1S(=O)(=O)Nc1cccc(OC(F)(F)F)c1 (stereo not shown) [Example 1.527]
- IC50: 200 to 750 nM

SMILES: COc1cc(NC(=O)[C@@H]2CCC[C@@H](OC)C2)ccc1S(=O)(=O)Nc1cccc(C(F)(F)F)c1 [Example 1.554]
- IC50: 2000 to 20000 nM

SMILES: Cc1cc(NC(=O)[C@@H](CO)c2ccccc2)ccc1S(=O)(=O)Nc1cccc(C(F)(F)F)c1 [Example 1.459]
- IC50: 750 to 2000 nM

SMILES: CCc1cc(NC(=O)c2ccccc2)ccc1S(=O)(=O)Nc1cccc(C(F)(F)F)c1 [Example 1.193]
- IC50: 200 to 750 nM

SMILES: COc1cc(NC(=O)c2ccnn2C)ccc1S(=O)(=O)Nc1cc(OC(F)(F)F)ccc1F [Example 1.448]
- IC50: 200 to 750 nM

SMILES: Cn1nccc1C(=O)Nc1ccc(S(=O)(=O)Nc2cccc(OC(F)(F)F)c2)c(C#N)c1 [Example 1.289]
- IC50: 750 to 2000 nM

SMILES: CCOc1cc(NC(=O)[C@H]2CC=CC[C@@H]2C(=O)O)ccc1S(=O)(=O)Nc1cccc(OC(F)(F)F)c1 [Example 1.358]
- IC50: ≤ 200 nM

SMILES: CCOc1cc(NC(=O)[C@@H](NC=O)C(C)CC)ccc1S(=O)(=O)Nc1cccc(OC(F)(F)F)c1 (stereo partly shown) [Example 1.108]
- IC50: ≤ 200 nM

SMILES: CCOc1cc(NC(=O)C2CC=CCC2)ccc1S(=O)(=O)Nc1cccc(OC(F)(F)F)c1 (stereo not shown) [Example 1.480]
- IC50: 200 to 750 nM

SMILES: CCOc1cc(NC(=O)[C@H]2CCCC[C@H]2C(=O)O)ccc1S(=O)(=O)Nc1ccc(C)c(OC(F)(F)F)c1 (racemic) [Example 1.314]
- IC50: 750 to 2000 nM

SMILES: CCOc1cc(NC(=O)[C@@H](CO)c2ccccc2)ccc1S(=O)(=O)Nc1ccc(C)c(CC)c1 [Example 1.498]
- IC50: ≤ 200 nM

SMILES: CCOc1cc(NC(=O)[C@H]2CCOC[C@@H]2COC)ccc1S(=O)(=O)Nc1cccc(OC(F)(F)F)c1 (racemic) [Example 1.237]
- IC50: 200 to 750 nM

SMILES: CCOc1cc(NC(=O)C(CC)C(O)C2CCOCC2)ccc1S(=O)(=O)Nc1cccc(OC(F)(F)F)c1 (stereo not shown) [Example 1.039]
- IC50: ≤ 200 nM

SMILES: CCOc1cc(NC(=O)[C@@H](O)C(C)C)ccc1S(=O)(=O)Nc1cccc(OC(F)(F)F)c1F [Example 1.320]
- IC50: 200 to 750 nM

SMILES: CCOc1cc(NC(=O)C(O)Cc2ccccc2)ccc1S(=O)(=O)Nc1cccc(OC(F)(F)F)c1 (stereo not shown) [Example 1.182]
- IC50: ≤ 200 nM

SMILES: CCOc1cc(NC(=O)[C@H](O)c2ccccc2)ccc1S(=O)(=O)Nc1cccc(OC(F)(F)F)c1 [Example 1.547]
- IC50: 200 to 750 nM

SMILES: CCOc1cc(NC(=O)C(C(=O)O)C2CCOC2)ccc1S(=O)(=O)Nc1cccc(OC(F)(F)F)c1 (stereo not shown) [Example 1.436]
- IC50: ≤ 200 nM

SMILES: CCOc1cc(NC(=O)[C@@H](CO)c2ccccc2)ccc1S(=O)(=O)Nc1cccc(Cl)c1Cl [Example 1.272]
- IC50: 750 to 2000 nM

SMILES: CCOc1cc(NC(=O)C2c3ccccc3CC2O)ccc1S(=O)(=O)Nc1cccc(OC(F)(F)F)c1 (stereo not shown) [Example 1.257]
- IC50: ≤ 200 nM

SMILES: CCOc1cc(NC(=O)C2COCCO2)ccc1S(=O)(=O)Nc1cccc(OC(F)(F)F)c1 (stereo not shown) [Example 1.282]
- IC50: 750 to 2000 nM

SMILES: CCOc1cc(NC(=O)[C@@H](NC(C)=O)c2ccccc2)ccc1S(=O)(=O)Nc1cccc(OC(F)(F)F)c1 [Example 1.313]
- IC50: ≤ 200 nM

SMILES: CCOc1cc(NC(=O)C(O)c2cccc(Cl)c2)ccc1S(=O)(=O)Nc1cccc(OC(F)(F)F)c1 (stereo not shown) [Example 1.528]
- IC50: ≤ 200 nM

SMILES: CCOc1cc(NC(=O)C(CO)CCC(C)C)ccc1S(=O)(=O)Nc1cccc(OC(F)(F)F)c1 (stereo not shown) [Example 1.128]
- IC50: ≤ 200 nM

SMILES: COc1cc(NC(=O)CC2CCOC2)ccc1S(=O)(=O)Nc1cccc(C(F)(F)F)c1 (stereo not shown) [Example 1.526]
- IC50: 2000 to 20000 nM

SMILES: CCOc1cc(NC(=O)[C@@H](CO)c2ccccc2)ccc1S(=O)(=O)Nc1cccc(Cl)c1C(F)(F)F [Example 1.350]
- IC50: 2000 to 20000 nM

SMILES: CCOc1cc(NC(=O)[C@@H](O)c2ccccc2)ccc1S(=O)(=O)Nc1cccc(OC(F)(F)F)c1 [Example 1.168]
- IC50: ≤ 200 nM

SMILES: CCOc1cc(NC(=O)C(CO)CC2CC=CCC2)ccc1S(=O)(=O)Nc1cccc(OC(F)(F)F)c1 (stereo not shown) [Example 1.428]
- IC50: ≤ 200 nM

SMILES: CCOc1cc(NC(=O)c2cn[nH]c(=O)c2)ccc1S(=O)(=O)Nc1cccc(OC(F)(F)F)c1 [Example 1.529]
- IC50: ≤ 200 nM

SMILES: Cn1nccc1C(=O)Nc1ccc(S(=O)(=O)Nc2cccc(C(F)(F)F)c2)c(Cl)c1 [Example 1.141]
- IC50: 200 to 750 nM

SMILES: CCOc1cc(NC(=O)[C@@H](CO)C(C)C)ccc1S(=O)(=O)Nc1cccc(C(C)(C)O)c1 [Example 1.353]
- IC50: 2000 to 20000 nM

SMILES: CC(C)[C@H](O)C(=O)Nc1ccc(S(=O)(=O)Nc2cccc(OC(F)(F)F)c2)c(OC(F)(F)F)c1 [Example 1.134]
- IC50: 200 to 750 nM

SMILES: CC(=O)Nc1ccc(S(=O)(=O)Nc2cccc(C(F)(F)F)c2)c(C)c1 [Example 1.321]
- IC50: 2000 to 20000 nM

SMILES: COc1cc(NC(=O)CC2CCNC2)ccc1S(=O)(=O)Nc1cccc(C(F)(F)F)c1 (stereo not shown) [Example 1.214]
- IC50: 2000 to 20000 nM

SMILES: COc1cc(NC(=O)C2CCCCO2)ccc1S(=O)(=O)Nc1cccc(C(F)(F)F)c1 (stereo not shown) [Example 1.572]
- IC50: 750 to 2000 nM

SMILES: CCOc1cc(NC(=O)C(C(=O)O)C2CCCCC2)ccc1S(=O)(=O)Nc1cccc(OC(F)(F)F)c1 (stereo not shown) [Example 1.484]
- IC50: ≤ 200 nM

SMILES: CCOc1cc(NC(=O)c2ccnc(N)c2)ccc1S(=O)(=O)Nc1cccc(OC(F)(F)F)c1 [Example 1.117]
- IC50: ≤ 200 nM

SMILES: CCOc1cc(NC(=O)CC(O)c2nccs2)ccc1S(=O)(=O)Nc1cccc(OC(F)(F)F)c1 (stereo not shown) [Example 1.485]
- IC50: 200 to 750 nM

SMILES: COc1cc(NC(=O)C2CCOCC2)ccc1S(=O)(=O)Nc1cccc(C(F)(F)F)c1 [Example 1.304]
- IC50: 750 to 2000 nM

SMILES: CCOc1cc(NC(=O)C2CCC(=O)N2C)ccc1S(=O)(=O)Nc1cccc(OC(F)(F)F)c1 (stereo not shown) [Example 1.081]
- IC50: 750 to 2000 nM

SMILES: CCCOc1cc(NC(=O)[C@@H](CO)C(C)C)ccc1S(=O)(=O)Nc1cccc(OC(F)(F)F)c1 [Example 1.551]
- IC50: ≤ 200 nM

SMILES: CCn1nccc1C(=O)Nc1ccc(S(=O)(=O)Nc2cccc(C(F)(F)F)c2)c(C)c1 [Example 1.519]
- IC50: 200 to 750 nM

SMILES: Cc1cc(NC(=O)c2cncs2)ccc1S(=O)(=O)Nc1cccc(C(F)(F)F)c1 [Example 1.501]
- IC50: 200 to 750 nM

SMILES: Cc1cc(NC(=O)c2cscn2)ccc1S(=O)(=O)Nc1cccc(C(F)(F)F)c1 [Example 1.359]
- IC50: 2000 to 20000 nM

SMILES: CCOc1cc(NC(=O)[C@@H](N)c2ccccc2)ccc1S(=O)(=O)Nc1cccc(OC(F)(F)F)c1 [Example 1.086]
- IC50: ≤ 200 nM

SMILES: CCOc1cc(NC(=O)[C@@H](NC(C)=O)C(C)C)ccc1S(=O)(=O)Nc1ccc(C)c(C(F)(F)F)c1 [Example 1.543]
- IC50: ≤ 200 nM

SMILES: CCOc1cc(NC(=O)[C@@H](CO)C2CC2)ccc1S(=O)(=O)Nc1ccc(CC)c(C)c1 [Example 1.135]
- IC50: ≤ 200 nM

SMILES: CCOc1cc(NC(=O)[C@@H](CO)C(C)C)ccc1S(=O)(=O)Nc1cccc(C(C)(C)C)c1 [Example 1.017]
- IC50: ≤ 200 nM

SMILES: CCOc1cc(NC(=O)[C@@H](NC(C)=O)C(C)C)ccc1S(=O)(=O)Nc1cccc(C(F)(F)F)c1 [Example 1.507]
- IC50: ≤ 200 nM

SMILES: CCOc1cc(NC(=O)[C@@H](CO)c2ccccc2)ccc1S(=O)(=O)Nc1cccc(C(C)(C)O)c1 [Example 1.270]
- IC50: 2000 to 20000 nM
